{"source": "patent US20140364445A1", "about": "“PHARMACEUTICAL COMPOSITION COMPRISING A TRPA1 ANTAGONIST AND AN ANTICHOLINERGIC AGENT” (GLENMARK PHARMACEUTICALS S.A., priority 2011, published 2014)", "key": {"[1]": {"test_system": "methacholine-induced bronchoconstriction", "experiment": "Methacholine challenge test (methacholine-induced bronchoconstriction), invasive whole body plethysmograph", "type": "in vivo, male Dunkin Hartley guinea pig", "settings": "for inhibition at 10 mg/kg: Cavia porcellus, read-out: % inhibition in airway resistance (Mean ± SEM)", "procedure": "The effect of Compound 52, tiotropium bromide and their combination on methacholine challenge test in male Dunkin Hartley guinea pig was evaluated using invasive whole body plethysmograph (Elan™ R C, Buxco apparatus). Animals and grouped as described in Table 2.\nAnimals were anesthetized by intraperitonial injection of urethane (1 g/kg). The surgical process carried out in the aseptic area. Right jugular vein of anesthetized animal was exposed and cannulated with fine bore polythene tube. Trachea was also cannulated for artificial respiration and to measure airway resistance. The prepared animal was fixed in the invasive whole body plethysmograph with artificial respiration (tidal volume −7 ml). Methacholine challenge test was performed and the recordings were taken by the following schedule. • First log period: Baseline −5 min • Second log period: Normal saline −3 min • Third log period: Methacholine −3 min\nThis protocol was performed for all groups. Compound 52 (10 mg/kg, i.p.) was injected 4 hour prior to methacholine challenge. Tiotropium (0.5 mcg/kg, i.v) was given at second log period. In third log period, the animal was injected with methacholine (60 mcg/kg/2 ml, i.v). The methacholine induced bronchoconstriction (expressed as airway resistance (RI value in cmH2O*sec/ml)) was recorded by Buxco apparatus."}, "LPS induced neutrophilia [2]": {"test_system": "LPS induced neutrophilia", "experiment": "LPS induced neutrophilia, Compound 52 and tiotropium", "type": "in vivo, female SD rats", "settings": "for inhibition at 3 mg/kg: Rattus norvegicus, Neutrophil, po", "procedure": "The effect of combination of Compound 52 and tiotropium on LPS induced neutrophilia in female SD rats was evaluated. Female SD rats were grouped as mentioned in Table 6. Compound 52 (3 mg/kg/5 ml) and tiotropium (1 mcg/ml as inhalation for 3 min at the rate of 0.05 ml/min) were administered 2 and 1 hour prior to LPS exposure respectively. LPS was nebulized at concentration of 100 mcg ml^−1 for 40 min at 0.4 ml min^−1 and a pressure of 1.7 psig in a perspex exposure chamber (1.5×1×1 ft) fitted with nebulizer (RCI Hudson). Control animals were given saline exposure under similar conditions.\n(§1) Bronchoalveolar lavage (BAL) was done after 4 h of LPS exposure. Animal was anesthetized with urethane (1.2 gm/kg/5 mL, i.p. in normal saline) and BAL was done with PBS (3 ml). This procedure was repeated three times and the BAL fluid was pooled for the measurement of total leukocyte. BAL fluid was centrifuged immediately at 4000 rpm for 20 min and the pellet formed in the bottom of the tube was used for the smear preparation for differential leukocyte count estimation."}, "LPS induced neutrophilia [3]": {"test_system": "LPS induced neutrophilia", "experiment": "LPS induced neutrophilia, Compound 52 and ipratropium bromide", "type": "in vivo, male SD rats", "settings": "for inhibition at 6 mg/kg: Rattus norvegicus, Neutrophil, po", "procedure": "Animals were grouped as mentioned in Table 8. LPS at a concentration of 100 mcg ml^−1 was nebulized for 40 min at 0.4 ml/min and a pressure of 1.7 psig in a Perspex exposure chamber (1.5×1×1 ft) fitted with nebulizer (RCI Hudson). Control animals were given saline exposure under similar conditions. All the animals were treated as mentioned in Table 8. […] Bronchoalveolar lavage (BAL) was done after 4 h of LPS exposure. Animals were anesthetized with urethane (1.2 gm/kg/5 mL, i.p. in normal saline) and BAL was done with PBS (3 ml). This procedure was repeated three times and the BAL fluid was pooled for the measurement of total leukocyte. Remaining BAL fluid was centrifuged at 4000 rpm for 20 min. The pellet formed in the bottom of the tube was used for the smear preparation for differential leukocyte count estimation. The differential leukocyte count was done using Leishman's stain. […] Statistical significance was set at p<0.05."}, "human TRPA1 receptor": {"biological_target": "T1, human TRPA1 receptor (Homo sapiens, UniProt O75762)", "T1 construct": "expressed in transfected cells; host or cells: CHO cells", "T1 sequence (O75762 whole entry)": "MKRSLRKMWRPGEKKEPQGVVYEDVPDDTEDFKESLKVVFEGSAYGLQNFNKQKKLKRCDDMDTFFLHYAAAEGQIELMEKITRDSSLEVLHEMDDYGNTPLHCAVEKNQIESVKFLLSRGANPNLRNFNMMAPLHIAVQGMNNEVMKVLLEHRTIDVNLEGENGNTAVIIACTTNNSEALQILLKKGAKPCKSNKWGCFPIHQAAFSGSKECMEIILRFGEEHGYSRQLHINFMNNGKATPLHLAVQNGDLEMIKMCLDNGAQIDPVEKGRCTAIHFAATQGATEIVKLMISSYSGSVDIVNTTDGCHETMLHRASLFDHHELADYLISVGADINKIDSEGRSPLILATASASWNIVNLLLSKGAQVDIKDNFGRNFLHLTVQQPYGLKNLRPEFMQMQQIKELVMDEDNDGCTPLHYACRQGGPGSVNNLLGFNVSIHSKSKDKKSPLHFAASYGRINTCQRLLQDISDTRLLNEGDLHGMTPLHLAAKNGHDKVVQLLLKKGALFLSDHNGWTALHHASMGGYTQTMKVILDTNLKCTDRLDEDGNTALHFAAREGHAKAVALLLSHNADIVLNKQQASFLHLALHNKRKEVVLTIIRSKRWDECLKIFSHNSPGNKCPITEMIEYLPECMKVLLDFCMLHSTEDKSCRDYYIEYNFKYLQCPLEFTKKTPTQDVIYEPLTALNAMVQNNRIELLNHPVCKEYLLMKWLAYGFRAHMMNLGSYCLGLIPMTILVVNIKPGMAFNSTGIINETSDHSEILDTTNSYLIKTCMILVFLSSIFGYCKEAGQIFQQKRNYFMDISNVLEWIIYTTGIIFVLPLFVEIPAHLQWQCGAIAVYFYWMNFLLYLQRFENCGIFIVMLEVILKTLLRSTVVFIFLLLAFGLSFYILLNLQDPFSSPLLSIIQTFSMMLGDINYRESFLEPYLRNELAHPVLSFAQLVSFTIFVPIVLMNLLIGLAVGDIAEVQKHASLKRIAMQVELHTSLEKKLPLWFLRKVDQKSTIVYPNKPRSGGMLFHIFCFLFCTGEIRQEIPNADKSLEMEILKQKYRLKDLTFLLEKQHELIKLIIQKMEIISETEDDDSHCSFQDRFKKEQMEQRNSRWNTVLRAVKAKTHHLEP", "experiment": "Inhibition of AITC induced cellular uptake of radioactive calcium in human TRPA1 expressing CHO cells", "type": "cell-based", "settings": "read-out: hTRPA1 IC50 values", "procedure": "The human IC50 values were measured by the following method:\nThe inhibition of TRPA1 receptor activation was measured as inhibition of allylisothiocyanate (AITC) induced cellular uptake of radioactive calcium."}, "LPS induced neutrophilia [4]": {"test_system": "LPS induced neutrophilia", "experiment": "LPS induced neutrophilia, Compound 52 and aclidinium bromide", "type": "in vivo, male SD rats", "settings": "BAL 4 h after LPS, Compound 52 3 mg/kg p.o., aclidinium 50 mcg/ml inh; for inhibition at 3 mg/kg: Rattus norvegicus, Neutrophil, po, read-out: No of neutrophils, % inhibition (mean ± S.E.M.) (converted)", "procedure": "The effect of combination of Compound 52 and aclidinium bromide on LPS induced neutrophilia in male SD rats was evaluated. Animals were grouped as mentioned in Table 4.\nLPS was nebulized at concentration of 100 mcg ml^−1 for 40 min at 0.4 ml/min and a pressure of 1.7 psig in a Perspex exposure chamber (1.5×1×1 ft) fitted with nebulizer (RCI Hudson). Control animals were given saline exposure under similar conditions. All the animals were treated with compounds as mentioned in Table 4. Compound 52 (3 mg/kg/5 ml) was administered orally 2 h prior to LPS and aclidinium (50 mcg/ml) was nebulized at the rate of 0.05 ml/min and exposed to the animals for 3 min prior LPS exposure.\nas §1, with “Animals were” for “Animal was”, “leukocyte. Remaining” for “leukocyte.”, “min. The” for “min and the”, “estimation. The smeared slides were fixed by alcohol and stained using Leishman's stain further carried for differential leukocyte count.” for “estimation.”"}, "[5]": {"settings": "Compound 52 10 mg/kg i.p. 4 hour prior, tiotropium bromide 0.5 mcg/kg i.v., methacholine 60 mcg/kg i.v."}, "[6]": {"settings": "BAL 4 h after LPS, Compound 52 3 mg/kg p.o., tiotropium 1 mcg/ml inh"}, "[7]": {"settings": "4 h, read-out: No of neutrophils, % inhibition (mean ± S.E.M.)"}, "[8]": {"settings": "BAL 4 h after LPS, Compound 52 6 mg/kg p.o., ipratropium 1 mg/ml inh"}}, "note": "Read-outs that look alike come from different tables or passages of the source."}
{"smiles": "C[N+]1(C)[C@@H]2C[C@@H](OC(=O)C(O)(c3cccs3)c3cccs3)C[C@H]1[C@@H]1O[C@@H]12", "note": "[Tiotropium bromide, (1α, 2β, 4β, 5α, 7β)-7-[(hydroxydi-2-thienylacetyl)oxy]-9,9-dimethyl-3-oxa-9-azoniatricyclo[3.3.1.02,4] nonane bromide monohydrate, reference compound]", "values": [{"measurement": "inhibition at 10 mg/kg", "setting": "[1]", "result": "-10.7 ± 23.4", "unit": "%"}, {"measurement": "Mean airway resistance (Mean ± SEM)", "setting": "[1]; [5]", "result": "1.51 ± 0.32", "unit": "cmH2O*sec/ml"}, {"measurement": "No of neutrophils (mean ± S.E.M.)", "setting": "LPS induced neutrophilia [2]; [6]", "result": "6.8 ± 0.7"}, {"measurement": "inhibition at 3 mg/kg", "setting": "LPS induced neutrophilia [2]; [7]", "result": 18.9, "unit": "%"}]}
{"smiles": "CC(C)[N+]1(C)[C@@H]2CC[C@H]1C[C@@H](OC(=O)C(CO)c1ccccc1)C2", "note": "(some centres unmarked) [Ipratropium bromide, 8-azoniabicyclo (3.2.1) octane, 3-(3-hydroxy-1-oxo-2-phenylpropoxy)-8-methyl-8-(1-methylethyl)-, bromide monohydrate, reference compound]", "values": [{"measurement": "No of neutrophils (mean ± S.E.M.)", "setting": "LPS induced neutrophilia [3]; [8]", "result": "6.2 ± 0.6"}, {"measurement": "inhibition at 6 mg/kg", "setting": "LPS induced neutrophilia [3]; [7]", "result": 23, "unit": "%"}]}
{"smiles": "Cn1c(=O)c2c(CC(=O)/N=c3\\scc(-c4ccc(F)c(C(F)(F)F)c4F)n3COP(=O)(O)O)csc2n(C)c1=O", "note": "[Compound 96]", "values": [{"measurement": "IC50", "setting": "human TRPA1 receptor", "result": 0.559, "unit": "µM"}]}
{"smiles": "Cn1c(=O)c2c(CC(=O)Nc3nc(-c4ccc(F)c(C(F)(F)F)c4F)cs3)csc2n(C)c1=O", "note": "[Compound 52]", "values": [{"measurement": "No of neutrophils (mean ± S.E.M.)", "setting": "LPS induced neutrophilia [4]", "result": "6.73 ± 0.72"}, {"measurement": "inhibition at 3 mg/kg", "setting": "LPS induced neutrophilia [4]", "result": 20.4, "unit": "%"}, {"measurement": "No of neutrophils (mean ± S.E.M.)", "setting": "LPS induced neutrophilia [3]; [8]", "result": "8.4 ± 0.8"}, {"measurement": "inhibition at 6 mg/kg", "setting": "LPS induced neutrophilia [3]; BAL 4 h after LPS, Compound 52 6 mg/kg p.o., ipratropium 1 mg/ml inh, read-out: No of neutrophils, % inhibition (mean ± S.E.M.) (converted)", "result": -3.2, "unit": "%"}, {"measurement": "inhibition at 10 mg/kg", "setting": "[1]; [5]", "result": "37.9 ± 6.7", "unit": "%"}, {"measurement": "Mean airway resistance (Mean ± SEM)", "setting": "[1]; [5]", "result": "0.77 ± 0.11", "unit": "cmH2O*sec/ml"}, {"measurement": "No of neutrophils (mean ± S.E.M.)", "setting": "LPS induced neutrophilia [2]; [6]", "result": "6.7 ± 0.9"}, {"measurement": "inhibition at 3 mg/kg", "setting": "LPS induced neutrophilia [2]; BAL 4 h after LPS, Compound 52 3 mg/kg p.o., tiotropium 1 mcg/ml inh, read-out: No of neutrophils, % inhibition (mean ± S.E.M.) (converted)", "result": 17.9, "unit": "%"}]}
{"smiles": "O=C(O[C@H]1C[N+]2(CCCOc3ccccc3)CCC1CC2)C(O)(c1cccs1)c1cccs1.[Br-]", "note": "[Aclidinium bromide, [(8R)-1-(3-phenoxypropyl)-1-azoniabicyclo[2.2.2]octan-8-yl]2-hydroxy-2,2-dithiophen-2-ylacetate bromide, reference compound]", "values": [{"measurement": "No of neutrophils (mean ± S.E.M.)", "setting": "LPS induced neutrophilia [4]", "result": "7.13 ± 1.03"}, {"measurement": "inhibition at 3 mg/kg", "setting": "LPS induced neutrophilia [4]", "result": 21.1, "unit": "%"}]}
